Patent US20090069398A1, “Pyrazolyl Carboxamides” (Bayer CropScience AG, priority 2005, published 2009)
Blank lines part the entries; values can stand above or below the compound they belong to.

Tests used:
[1] = log P determination by HPLC on reversed-phase column (EEC Directive 79/831 Annex V.A8); type: physicochemical; details: reversed-phase HPLC column (C 18); pH 2.3; HPLC reversed-phase C 18, 43° C.; 0.1% aqueous phosphoric acid/acetonitrile
Description: The log P values given in the Tables and Preparation Examples above are determined in accordance with EEC Directive 79/831 Annex V.A8 by HPLC (High Performance Liquid Chromatography) on reversed-phase column (C 18). Temperature: 43° C. The determination is carried out in the acidic range at pH 2.3 using the mobile phases 0.1% aqueous phosphoric acid and acetonitrile; linear gradient from 10% acetonitrile to 90% acetonitrile. Calibration is carried out using unbranched alkan-2-ones (having 3 to 16 carbon atoms) with known log P values (determination of the log P values by the retention times using linear interpolation between two successive alkanones).

[2] = system: Puccinia recondita; experiment: Puccinia test (wheat)/protective; type: in vivo; details: protective, application rate 1000 ppm, evaluation 10 days after inoculation
Description: (§1) [table] To produce a suitable preparation of active compound, 1 part by weight of active compound is mixed with the stated amounts of solvent and emulsifier, and the concentrate is diluted with water to the desired concentration. To test for protective activity, young plants are sprayed with the active compound preparation at the stated application rate. After the spray coating has dried on, the plants are sprayed with a conidia suspension of Puccinia recondita. The plants remain in an incubation cabin at 20° C. and 100% relative atmospheric humidity for 48 hours. The plants are then placed in a greenhouse at a temperature of about 20° C. and a relative atmospheric humidity of 80% to promote the development of rust pustules. Evaluation is carried out 10 days after the inoculation. 0% means an efficacy which corresponds to that of the control, whereas an efficacy of 100% means that no infection is observed.

[3] = system: Pyrenophora teres; experiment: Pyrenophora teres test (barley)/protective; type: in vivo; details: protective, application rate 1000 ppm, evaluation 8 days after inoculation
Description: as §1, with “of Pyrenophora teres.” for “of Puccinia recondita.”, “of 80%.” for “of 80% to promote the development of rust pustules.”, “out 8” for “out 10”

[4] = system: Botrytis cinerea; experiment: Botrytis test (cucumber)/protective; type: in vivo; details: protective, application rate 500 ppm, evaluation 5-6 days after inoculation
Description: (§2) [table] To produce a suitable preparation of active compound, 1 part by weight of active compound is mixed with the stated amounts of solvent and emulsifier, and the concentrate is diluted with water to the desired concentration. To test for protective activity, young cucumber plants are sprayed with the active compound preparation at the stated application rate. 1 day after the treatment, the plants are inoculated with a spore suspension of Botrytis cinerea and then remain at 100% relative humidity and 20° C. for 48 h. The plants then remain at 96% relative atmospheric humidity and a temperature of 13° C. Evaluation is carried out 5-6 days after the inoculation. 0% means an efficacy which corresponds to that of the control, whereas an efficacy of 100% means that no infection is observed.

[5] = system: Alternaria solani; experiment: Alternaria test (tomato)/protective; type: in vivo; details: protective, application rate 500 ppm, evaluation 7 days after inoculation
Description: as §2, with “To test for protective activity, young cucumber plants are sprayed with the active compound preparation at the stated application rate.” left out, “Alternaria solani” for “Botrytis cinerea”, “24” for “48”, “20°” for “13°”, “7” for “5-6”

chromatographic logP [1]: 3.61
SMILES: CCn1cc(C(=O)Nc2ccc(F)cc2-c2ccc(Cl)c(Cl)c2)c(C(F)F)n1 [Example 1, N-(3′,4′-dichloro-5-fluorobiphenyl-2-yl)-3-(difluoromethyl)-1-ethyl-1H-pyrazole-4-carboxamide]

chromatographic logP [1]: 3.34
SMILES: CCn1cc(C(=O)Nc2ccc(F)cc2-c2ccc(Cl)c(F)c2)c(C(F)F)n1 [Example 2, N-(4′-chloro-3′,5-difluorobiphenyl-2-yl)-3-(difluoromethyl)-1-ethyl-1H-pyrazole-4-carboxamide]

chromatographic logP [1]: 4.53
SMILES: Cn1nc(C(C)(C)C)c(C(=O)Nc2ccc(F)cc2-c2ccc(Cl)c(Cl)c2)c1Cl [Example 5]

SMILES: CCn1cc(C(=O)Nc2ccc(F)cc2-c2ccc(Cl)c(Cl)c2)c(C(F)F)n1 [drawing 16]
Efficacy in % [2]: 95%

SMILES: CCn1cc(C(=O)Nc2ccc(F)cc2-c2ccc(Cl)c(Cl)c2)c(C(F)F)n1 [drawing 17]
Efficacy in % [3]: 100%

SMILES: Cn1nc(C(C)(C)C)c(C(=O)Nc2ccc(F)cc2-c2ccc(Cl)c(Cl)c2)c1Cl [drawing 18]
Efficacy in % [4]: 70%

SMILES: CCn1cc(C(=O)Nc2ccc(F)cc2-c2ccc(Cl)c(Cl)c2)c(C(F)F)n1 [drawing 19]
Efficacy in % [5]: 95%

SMILES: CCn1cc(C(=O)Nc2ccc(F)cc2-c2ccc(Cl)c(F)c2)c(C(F)F)n1 [drawing 20]
Efficacy in % [5]: 95%
